Read-outs that look alike come from different tables or passages of the source.
Tests used:
[1] = system: tumor fragments obtained by FNAB from a patient-derived osteosarcoma xenograft model; format: in vitro ADME, human
Experimental: (§1) FIG. 8 provides an expanded view of an extracted ion chromatogram (XIC) from a potential metabolite highlighted against the background sample. Perfused fluid was collected from the fluidic apparatus as described in the above experiment performed with the FNAB samples (FIGS. 2A-C) to determine whether tumor-mediated drug processing and metabolism can be analyzed. Fluidic samples were prepared by filtration and analyzed by mass spectrometry.

[2] = system: FNAB osteosarcoma samples; experiment: Active caspase ELISA of perfused fluid from fluidic apparatus; format: cell-based, human; settings: data not shown
Experimental: The fluidic apparatuses were connected to their respective syringe pumps. The FNAB samples were first primed with several passes of culture media. After priming, each FNAB sample was subject to constant laminar flow at 100 μl/hr for 72 hours with their respective treatment. Media was collected every 24 hours and analyzed for caspase 3 and 7 and lactate dehydrogenase (LDH).
as §1

[3] = system: patient-derived osteosarcoma xenograft; experiment: Treatment of patient-derived osteosarcoma xenograft mice in vivo (MRI tumor volume, H&E, cleaved-caspase 3); design: species or system mouse
Experimental: (§2) Xenograft mice bearing human osteosarcoma tumor were treated with vehicle, gemcitabine, MK-1775, or a combination of gemcitabine and MK-1775 for 15 days. Treatments were administered on day 1, 3, 8, and 10. FNAB samples were taken before (day 0) and at 6 and 24 hours after treatment. Cell extracts were prepared from the FNAB samples to assess expression levels of CDC2Y15, a target for MK-1775, by Western blot. After day 15, tumors were analyzed by T2-weighted MRIs and paraffin sections of tumors were prepared to assess microscopic features of cell death by H&E-staining and to assess levels of cleaved-caspase 3.
The symbol (*) indicates statistical significance (p<0.05).

[4] = system: FNAB osteosarcoma samples; experiment: Ex vivo treatment of FNAB osteosarcoma samples in microfluidic apparatus, LIVE/DEAD fluorescence staining; format: cell-based, human
Source text: Eight micro-scale fluidic apparatuses of the present technology were fabricated from soft photolithography and bonded onto glass coverslip slides. The apparatuses were sterilized by ethylene oxide (EtO) gas. Each fluidic apparatus included a single channel, and the center of the channel contained a series of seven free standing post, collectively called the retaining element, which were used to retain the FNBA osteosarcoma sample (see FIG. 3A). Fluid flows into the channel by an inlet port and out of the channel by an outlet port.
FNAB osteosarcoma samples were taken from xenograft mouse with patient-derived osteosarcoma using a 25-gauge needle. FNABs were processed and selected for viability by H&E staining procedures before use and individually loaded one into each retaining element and imaged by microscopy and measured for size (all FNABs assayed were ˜300 μm in diameter). […]
The fluidic apparatuses were connected to their respective syringe pumps. […] Media was collected every 24 hours and analyzed for caspase 3 and 7 and lactate dehydrogenase (LDH). […]
The FNAB samples were fully penetrated by drugs. Tumor cells were stained with HCS LIVE/DEAD® Green Kit (Life Technologies, Carlsband, Calif.) and images were obtained using inverted fluorescence microscope to assess dead (green) and alive (blue) cells.

CDC2Y15 = experiment: Western blot of CDC2Y15 expression in FNAB cell extracts from treated xenograft mice; design: species or system mouse; settings: in vivo treatment; compared to vehicle and gemcitabine treatments; FIG. 7A column (a)
Experimental: as §2

[5] = compared to vehicle and gemcitabine treatments, FIG. 7A column (c)

SMILES	drug metabolism by tumor fragments (mass spectrometry) [1]	cell death by active caspase ELISA [2]	apoptosis of the cancer cells, in vivo model ([3]; 15 days of treatment)	DNA staining of tumor sections [3, 5]	immunoreactivity to caspase 3 [3, 5]	tumor volume at day 15 ([3]; day 15, compared to vehicle and gemcitabine treatments, FIG. 7A column (b))	cell death in vivo ([3]; patient-derived osteosarcoma xenograft mouse model, FIG. 7A)	drug metabolism by tumor fragments (mass spectrometry) ([1]; human)	cell death in tumor fragments ex vivo ([4]; 1 μM MK-1775, 3 μM gemcitabine, 100 μl/hr for 72 hours, LIVE/DEAD stain, FIG. 7C)	apoptosis of the cancer cells, ex vivo model ([4]; 72 hour period)	expression levels of CDC2Y15 (CDC2Y15)
Nc1ccn([C@@H]2O[C@H](CO)[C@@H](O)C2(F)F)c(=O)n1 [gemcitabine]	active metabolism of gemcitabine into its active form, triphosphate	not									
C=CCn1c(=O)c2cnc(Nc3ccc(N4CCN(C)CC4)cc3)nc2n1-c1cccc(C(C)(C)O)n1 [MK-1775]		increased cell death	able to induce apoptosis	decreased DNA staining	high immunoreactivity to caspase 3	reduced tumor volume	lead to cell death	metabolism of MK-1775 into its metabolized forms	lead to cell death	able to induce apoptosis	reduces expression levels of CDC2Y15
